Data set [1] deals with Pseudomonas aeruginosa. The data set can be described thus: Potentiation of colistin-induced inhibition of swarming motility in Pseudomonas aeruginosa HONKR assessed as reduction in biofilm formation at 0.125 ug/mL. In kind it is functional, organism-based.
Another data set relates to Salmonella enterica. The data set can be described thus: Inhibition of swarming motility of Salmonella enterica clinical isolates incubated for 16 to 20 hrs. In kind it is functional.
The subject of data set [2] is Escherichia coli. Put plainly: Inhibition of swarming motility of Escherichia coli clinical isolates incubated for 16 to 20 hrs. In kind it is functional.
The subject of data set [3] is Pseudomonas aeruginosa. The data set can be described thus: Potentiation of tobramycin-induced inhibition of swarming motility in Pseudomonas aeruginosa HONKR assessed as reduction in biofilm formation at 0.125 ug/mL. The data set is classed as functional, organism-based.
Another data set concerns Xanthomonas campestris. The data set can be described thus: Inhibition of swarming motility of Xanthomonas campestris incubated for 16 to 20 hrs. The data set is classed as functional.
The test system of data set [4] is Pseudomonas aeruginosa. Put plainly: Inhibition of swarming motility of Pseudomonas aeruginosa clinical isolates incubated for 16 to 20 hrs. The data set is classed as functional.
For data set [5], the system named is Pectobacterium atrosepticum. Put plainly: Inhibition of swarming motility of Pectobacterium atrosepticum incubated for 16 to 20 hrs. In kind it is functional.
The next data set concerns Pseudomonas syringae. The data set can be described thus: Inhibition of swarming motility of Pseudomonas syringae incubated for 16 to 20 hrs. The data set is classed as functional.
The subject of data set [6] is Pseudomonas aeruginosa. Put plainly: Downregulation of pilX gene expression in Pseudomonas aeruginosa by lacZ reporter gene based beta-galactosidase assay. In kind it is functional, organism-based.
The subject of data set [7] is Pseudomonas aeruginosa. Put plainly: Inhibition of swarming motility of Pseudomonas aeruginosa HONKR at 16 ug/mL incubated for 16 to 20 hrs relative to control. In kind it is functional.
In data set [8] the test system is Escherichia coli. Put plainly: Antibiofilm activity against Escherichia coli UTI89 incubated for 2 days at 23 degC followed by 1 day incubation at RT. In kind it is functional.
For data set [9], the system named is Pseudomonas aeruginosa. The data set can be described thus: Down regulation of pilY1 expression in swarm plate cultured Pseudomonas aeruginosa PAO1 incubated for 19 to 24 hrs by Western blot analysis. In kind it is functional, organism-based. A general note: Immunoblotting shows a protein as a band on a membrane.
For the next data set, the system named is Burkholderia cepacia. Put plainly: Inhibition of swarming motility of Burkholderia cepacia clinical isolates incubated for 16 to 20 hrs. In kind it is functional.
For data set [10], the system named is Pseudomonas aeruginosa. The data set can be described thus: Down regulation of pilA expression in swarm plate cultured Pseudomonas aeruginosa PAO1 incubated for 19 to 24 hrs by Western blot analysis. In kind it is functional, organism-based.
The test system of data set [11] is Escherichia coli. The data set can be described thus: Inhibition of swarming motility of Escherichia coli PY31 at 16 ug/mL incubated for 16 to 20 hrs relative to control. The data set is classed as functional.
Another data set relates to M14. The data set can be described thus: Cytotoxicity against human M14 cells assessed as reduction in cell viability at < 10 uM. The data set is classed as cell-based.
Data set [12] relates to Pseudomonas aeruginosa. The data set can be described thus: Inhibition of swarming motility of Pseudomonas aeruginosa HONKR at 10 ug incubated for 18 to 24 hrs. In kind it is functional, organism-based.

Activity calls are given as the source filed them. No cut-off for these calls is given here.

The inhibition is the share of the control response that was lost under treatment. For the compound `CC1(C)CC[C@]2(C(=O)O)CC[C@]3(C)C(=CC[C@@H]4[C@@]5(C)Cc6c(n[nH]c6N)C(C)(C)[C@@H]5CC[C@]43C)[C@@H]2C1`, the result in the data set with Pseudomonas aeruginosa [1], in the data set on Pseudomonas aeruginosa [3] and in the data set on Pseudomonas aeruginosa [6] was Active. The INH in the data set on Salmonella enterica is 1 µg/mL; in the data set with Escherichia coli [2], 1 µg/mL; in the data set with Xanthomonas campestris it was less than 0.5 µg/mL; with Pseudomonas aeruginosa [4], 1 µg/mL; in data set [5], less than 0.5 µg/mL; with Pseudomonas syringae it was less than 0.5 µg/mL. In the data set with Burkholderia cepacia, this compound yielded an INH of 0.25 µg/mL. The inhibition at 16 µg/mL with Pseudomonas aeruginosa [7] and in the data set on Escherichia coli [11] was more than 90% in each case. Further, the MBIC50 in the data set on Escherichia coli [8] was 4 µg/mL. Further, the figures for the Activity entry in the data set on Pseudomonas aeruginosa [9], with Pseudomonas aeruginosa [10] and in the data set with M14 were “Dose-dependent effect”, “Dose-dependent effect” and “Non-Toxic”, respectively.

Regarding `CC1(C)CC[C@]2(C(=O)O)CC[C@]3(C)C(=CC[C@@H]4[C@@]5(C)Cc6cn[nH]c6C(C)(C)[C@@H]5CC[C@]43C)[C@@H]2C1`, the INH in the data set on Salmonella enterica is 16 µg/mL; in the data set on Escherichia coli [2], more than 16 µg/mL; in the data set with Pseudomonas aeruginosa [4], 2 µg/mL; in the data set with Burkholderia cepacia, 0.5 µg/mL. For the same compound, the inhibition at 16 µg/mL with Pseudomonas aeruginosa [7] and with Escherichia coli [11] was more than 90% each time. Moreover, the MBIC50 in the data set on Escherichia coli [8] came to 4 µg/mL.

On to `Cn1cc2c(n1)C(C)(C)[C@@H]1CC[C@]3(C)[C@H](CC=C4[C@@H]5CC(C)(C)CC[C@]5(C(=O)O)CC[C@]43C)[C@@]1(C)C2`, for which the INH was more than 16 µg/mL in the data set on Salmonella enterica, more than 16 µg/mL in the data set on Escherichia coli [2], 16 µg/mL with Pseudomonas aeruginosa [4] and 1 µg/mL in the data set on Burkholderia cepacia. The figures for the inhibition at 16 µg/mL with Pseudomonas aeruginosa [7] and in the data set with Escherichia coli [11] were more than 90% and 80%, respectively. This compound also came in with an MBIC50 with Escherichia coli [8] of 8 µg/mL.

Take `CC1(C)CC[C@]2(C(=O)O)CC[C@]3(C)C(=CC[C@@H]4[C@@]5(C)CC[C@H](O)C(C)(C)[C@@H]5CC[C@]43C)[C@@H]2C1` [OLEANOLIC_ACID]: the INH with Salmonella enterica is more than 64 µg/mL; with Escherichia coli [2], 16 µg/mL; in the data set with Pseudomonas aeruginosa [4], 8 µg/mL; in the data set on Burkholderia cepacia, 0.5 µg/mL. Also, the inhibition at 16 µg/mL is more than 90% in the data set on Pseudomonas aeruginosa [7] and 80% in the data set with Escherichia coli [11]. Besides, in the data set with Escherichia coli [8], the MBIC50 entry is on record as “>=32 ug ml-1”.

Turning to COLISTIN, in the data set with Pseudomonas aeruginosa [12], the inhibition result is “inactive”.

Consider `NC[C@H]1O[C@H](O[C@H]2[C@H](O)[C@@H](O[C@H]3O[C@H](CO)[C@@H](O)[C@H](N)[C@H]3O)[C@H](N)C[C@@H]2N)[C@H](N)C[C@@H]1O` [TOBRAMYCIN], for which the INH in the data set with Salmonella enterica was 8 µg/mL; in the data set on Escherichia coli [2], 16 µg/mL; in the data set on Pseudomonas aeruginosa [4] it was 4 µg/mL; with Burkholderia cepacia, more than 64 µg/mL. Besides, the inhibition entry in the data set with Pseudomonas aeruginosa [12] is “inactive”.

Values taken from ChEMBL document CHEMBL4627274, “Optimized plant compound with potent anti-biofilm activity across gram-negative species” (Bioorg Med Chem, 2020).
